Source: patent US20240228535A1 (priority 2022, published 2024)

biological target: SARS2 coronavirus 3CL protease (Severe acute respiratory syndrome coronavirus 2, UniProt P0DTD1); assay: biochemical; conditions: 5 nM enzyme, 30 min pre-incubation with compound, 15 μM peptide substrate, 4 h at room temperature; read-out: FRET Potency (nM); IC50 values in the SARS2 3CLPro FRET assay

Q: For `CNC(=O)C(=O)[C@H](C[C@@H]1C[C@@H](C)NC1=O)NC(=O)c1cc(Cl)ccc1NC(=O)C1CC1(F)F` (single isomer, unassigned) [Example 14], which IC50 is on record?
A: Its IC50 is 46.4 nM.

Q: For `CNC(=O)C(=O)[C@H](C[C@@H]1C[C@@H](C)NC1=O)NC(=O)c1cc(Cl)ccc1NC(=O)C1CCC(F)(F)C1` (single isomer, unassigned) [Example 16], which IC50 is on record?
A: Its IC50 is 31.6 nM.

Q: How did the IC50 turn out when `CNC(=O)C(=O)[C@H](C[C@@H]1C[C@@H](C)NC1=O)NC(=O)c1cc(Cl)ccc1NC(=O)C1CC1(F)F` (single isomer, unassigned) [Example 60] was run?
A: Its IC50 is 7.9 nM.

Q: Which IC50 does the source give for `CNC(=O)C(=O)[C@H](C[C@@H]1C[C@@H](C)NC1=O)NC(=O)c1cc(Cl)ccc1NC(=O)C1CCC(F)(F)C1` (single isomer, unassigned) [Example 65] here?
A: The IC50 was 7.2 nM.

Q: For `CNC(=O)C(=O)[C@H](C[C@@H]1C[C@@H](C)NC1=O)NC(=O)c1cc(Cl)ccc1NC(=O)C1CCCC(F)(F)C1` (single isomer, unassigned) [Example 198], which IC50 is on record?
A: The IC50 was 5.5 nM.

Q: `CNC(=O)C(=O)[C@H](C[C@@H]1C[C@@H](C)NC1=O)NC(=O)c1cc(Cl)ccc1NC(=O)C1CCCC(F)(F)C1` (single isomer, unassigned) [Example 199] was tested. Which IC50 did it give?
A: Its IC50 is 18.7 nM.

Q: How did the IC50 turn out when `CNC(=O)C(=O)[C@H](C[C@@H]1C[C@@H](C)NC1=O)NC(=O)c1cc(Cl)ccc1NC(=O)C(C)c1ccc(C(F)(F)F)nc1` (single isomer, unassigned) [Example 229] was run?
A: The IC50 was 33.5 nM.

Q: `CNC(=O)C(=O)[C@H](C[C@@H]1C[C@@H](C)NC1=O)NC(=O)c1cc(Cl)ccc1NC(=O)C(C)c1ccc(C(F)(F)F)nc1` (single isomer, unassigned) [Example 230] was tested. Which IC50 did it give?
A: Its IC50 is 7 nM.

Q: `C[C@@H]1C[C@@H](C[C@H](NC(=O)c2cc(Cl)ccc2NC(=O)C2(C(F)(F)F)CC2)C(=O)C(=O)NC2CC2)C(=O)N1` [Example 1, 5-chloro-N—((S)-4-(cyclopropylamino)-1-((3S,5R)-5-methyl-2-oxopyrrolidin-3-yl)-3,4 dioxobutan-2-yl)-2-(1-(trifluoromethyl)cyclopropane-1-carboxamido)benzamide] was tested. Which IC50 did it give?
A: The IC50 was 7.5 nM.

Q: `C[C@@H]1C[C@@H](C[C@H](NC(=O)c2cc(Cl)ccc2NC(=O)c2ccnc(C(F)(F)F)c2)C(=O)C(=O)NC2CC2)C(=O)N1` [Example 2, N-(4-chloro-2-(((S)-4-(cyclopropylamino)-1-((3S,5R)-5-methyl-2-oxopyrrolidin-3-yl)-3,4-dioxobutan-2-yl)carbamoyl)phenyl)-2-(trifluoromethyl)isonicotinamide] was tested. Which IC50 did it give?
A: The IC50 was 5.6 nM.

Q: `C[C@@H]1C[C@@H](C[C@H](NC(=O)c2cc(Cl)ccc2NC(=O)CCC(F)(F)F)C(=O)C(=O)NC2CC2)C(=O)N1` [Example 3, 5-chloro-N—((S)-4-(cyclopropylamino)-1-((3S,5R)-5-methyl-2-oxopyrrolidin-3-yl)-3,4-dioxobutan-2-yl)-2-(4,4,4-trifluorobutanamido)benzamide] was tested. Which IC50 did it give?
A: The IC50 was 6.9 nM.

Q: How did the IC50 turn out when `CNC(=O)C(=O)[C@H](C[C@@H]1C[C@@H](C)NC1=O)NC(=O)c1cc(C#N)cnc1NC(=O)c1cc(C(F)(F)F)cc(C(F)(F)F)c1` [Example 4, 2-(3,5-bis(trifluoromethyl)benzamido)-5-cyano-N—((S)-1-((3S,5R)-5-methyl-2-oxopyrrolidin-3-yl)-4-(methylamino)-3,4-dioxobutan-2-yl)nicotinamide] was run?
A: Its IC50 is 11.5 nM.

Q: How did the IC50 turn out when `C[C@@H]1C[C@@H](C[C@H](NC(=O)c2cc(Cl)cnc2NC(=O)C23CC(C(F)(F)F)(C2)C3)C(=O)C(=O)NC2CC2)C(=O)N1` [Example 5, 5-chloro-N—((S)-4-(cyclopropylamino)-1-((3S,5R)-5-methyl-2-oxopyrrolidin-3-yl)-3,4-dioxobutan-2-yl)-2-(3-(trifluoromethyl)bicyclo[1.1.1]pentane-1-carboxamido)nicotinamide] was run?
A: Its IC50 is 8.7 nM.

Q: How did the IC50 turn out when `CC(C)OC(=O)Nc1ccc(Cl)cc1C(=O)N[C@@H](C[C@@H]1C[C@@H](C)NC1=O)C(=O)C(=O)NC1CC1` [Example 6, isopropyl (4-chloro-2-(((S)-4-(cyclopropylamino)-1-((3S,5R)-5-methyl-2-oxopyrrolidin-3-yl)-3,4-dioxobutan-2-yl)carbamoyl)phenyl)carbamate] was run?
A: Its IC50 is 4.8 nM.

Q: `C[C@@H]1C[C@@H](C[C@H](NC(=O)c2cc(Cl)ccc2NC(=O)[C@H]2CC2(F)F)C(=O)C(=O)NC2CC2)C(=O)N1` [Example 8, 5-chloro-N—((S)-4-(cyclopropylamino)-1-((3S,5R)-5-methyl-2-oxopyrrolidin-3-yl)-3,4-dioxobutan-2-yl)-2-((R)-2,2-difluorocyclopropane-1-carboxamido)benzamide] was tested. Which IC50 did it give?
A: The IC50 was 10.1 nM.

Q: Which IC50 does the source give for `CNC(=O)C(=O)[C@H](C[C@@H]1C[C@@H](C)NC1=O)NC(=O)c1cc(Cl)ccc1NC(=O)OC` [Example 9, methyl (4-chloro-2-(((S)-1-((3S,5R)-5-methyl-2-oxopyrrolidin-3-yl)-4-(methylamino)-3,4-dioxobutan-2-yl)carbamoyl)phenyl)carbamate] here?
A: Its IC50 is 7.3 nM.

Q: Which IC50 does the source give for `CNC(=O)C(=O)[C@H](C[C@@H]1C[C@@H](C)NC1=O)NC(=O)c1cc(Cl)ccc1NC(=O)OC1CC1` [Example 10, cyclopropyl (4-chloro-2-(((S)-1-((3S,5R)-5-methyl-2-oxopyrrolidin-3-yl)-4-(methylamino)-3,4-dioxobutan-2-yl)carbamoyl)phenyl)carbamate] here?
A: The IC50 was 3.9 nM.

Q: With `CNC(=O)C(=O)[C@H](C[C@@H]1CCNC1=O)NC(=O)c1cc(Cl)ccc1NC(=O)OC1CC1` [Example 11, cyclopropyl (4-chloro-2-(((S)-4-(methylamino)-3,4-dioxo-1-((S)-2-oxopyrrolidin-3-yl)butan-2-yl)carbamoyl)phenyl)carbamate] as the compound, how does the IC50 read?
A: Its IC50 is 4.8 nM.

Q: With `O=C(NC1CC1)C(=O)[C@H](C[C@@H]1CCNC1=O)NC(=O)c1cc(F)ccc1NC(=O)C1(C(F)(F)F)CC1` [Example 12, N-[(1S)-3-(cyclopropylamino)-2,3-dioxo-1-[[(3S)-2-oxopyrrolidin-3-yl]methyl]propyl]-5-fluoro-2-[[1-(trifluoromethyl)cyclopropane-carbonyl]amino]benzamide] as the compound, how does the IC50 read?
A: The IC50 was 48.2 nM.

Q: With `C[C@@H]1C[C@@H](C[C@H](NC(=O)c2cc(C#N)ccc2NC(=O)C23CC(F)(C2)C3)C(=O)C(=O)NC2CC2)C(=O)N1` [Example 13] as the compound, how does the IC50 read?
A: The IC50 was 46.7 nM.

Q: With `C[C@@H]1C[C@@H](C[C@H](NC(=O)c2cc(Cl)ccc2NC(=O)C(C)(C)C(F)(F)F)C(=O)C(=O)NC2CC2)C(=O)N1` [Example 15, 5-chloro-N-[(1S)-3-(cyclopropylamino)-1-[[(3S,5R)-5-methyl-2-oxo-pyrrolidin-3-yl]methyl]-2,3-dioxo-propyl]-2-[(3,3,3-trifluoro-2,2-dimethyl-propanoyl)amino]benzamide] as the compound, how does the IC50 read?
A: The IC50 was 33.5 nM.

Q: `C[C@@H]1C[C@@H](C[C@H](NC(=O)c2cc(C#N)ccc2NC(=O)C23CC(C(F)(F)F)(C2)C3)C(=O)C(=O)NC2CC2)C(=O)N1` [Example 17] was tested. Which IC50 did it give?
A: The IC50 was 31.1 nM.

Q: For `CNC(=O)C(=O)[C@H](C[C@@H]1C[C@@H](C)NC1=O)NC(=O)c1cc(OC(F)F)cnc1NC(=O)c1cccc(C(F)(F)F)c1` [Example 18, 5-(difluoromethoxy)-N-[(1S)-3-(methylamino)-1-[[(3S,5R)-5-methyl-2-oxo-pyrrolidin-3-yl]methyl]-2,3-dioxo-propyl]-2-[[3-(trifluoromethyl)benzoyl]amino]pyridine-3-carboxamide], which IC50 is on record?
A: The IC50 was 31.1 nM.

Q: How did the IC50 turn out when `CNC(=O)C(=O)[C@H](C[C@@H]1C[C@@H](C)NC1=O)NC(=O)c1cc(Cl)ccc1NC(=O)C(C)C(F)(F)F` (stereo partly drawn) [Example 19, 5-chloro-N-[(1S)-3-(methylamino)-1-[[(3S,5R)-5-methyl-2-oxo-pyrrolidin-3-yl]methyl]-2,3-dioxo-propyl]-2-[(3,3,3-trifluoro-2-methyl-propanoyl)amino]benzamide] was run?
A: Its IC50 is 28.2 nM.

Q: For `C[C@@H]1C[C@@H](C[C@H](NC(=O)c2cc(OC(F)F)ccc2NC(=O)c2cccc(C(F)(F)F)c2)C(=O)C(=O)NC2CC2)C(=O)N1` [Example 20, N-[(1S)-3-(cyclopropylamino)-1-[[(3S,5R)-5-methyl-2-oxo-pyrrolidin-3-yl]methyl]-2,3-dioxo-propyl]-5-(difluoromethoxy)-2-[[3-(trifluoromethyl)benzoyl]amino]benzamide], which IC50 is on record?
A: The IC50 was 26.4 nM.

Q: `CNC(=O)C(=O)[C@H](C[C@@H]1C[C@@H](C)NC1=O)NC(=O)c1cc(Cl)ccc1NC(=O)C1CC(F)(F)C1` [Example 21, 5-chloro-2-[(3,3-difluorocyclobutanecarbonyl)amino]-N-[(1S)-3-(methylamino)-1-[[(3S,5R)-5-methyl-2-oxo-pyrrolidin-3-yl]methyl]-2,3-dioxo-propyl]benzamide] was tested. Which IC50 did it give?
A: Its IC50 is 24.9 nM.

Q: `C[C@@H]1C[C@@H](C[C@H](NC(=O)c2cc(Cl)cnc2NC(=O)C2(C(F)(F)F)CC2)C(=O)C(=O)NC2CC2)C(=O)N1` [Example 22, 5-chloro-N-[(1S)-3-(cyclopropylamino)-1-[[(3S,5R)-5-methyl-2-oxo-pyrrolidin-3-yl]methyl]-2,3-dioxo-propyl]-2-[[1-(trifluoromethyl)cyclopropane-carbonyl]amino]pyridine-3-carboxamide] was tested. Which IC50 did it give?
A: The IC50 was 22.6 nM.

Q: How did the IC50 turn out when `C[C@@H]1C[C@@H](C[C@H](NC(=O)c2cc(F)cnc2NC(=O)C2CC(F)(F)C2)C(=O)C(=O)NC2CC2)C(=O)N1` [Example 23, N-[(1S)-3-(cyclopropylamino)-1-[[(3S,5R)-5-methyl-2-oxo-pyrrolidin-3-yl]methyl]-2,3-dioxo-propyl]-2-[(3,3-difluorocyclobutanecarbonyl)amino]-5-fluoro-pyridine-3-carboxamide] was run?
A: The IC50 was 20.6 nM.

Q: `CNC(=O)C(=O)[C@H](C[C@@H]1C[C@@H](C)NC1=O)NC(=O)c1cc(Cl)ccc1NC(=O)C(C)C(F)(F)F` (stereo partly drawn) [Example 24, 5-chloro-N-[(1S)-3-(methylamino)-1-[[(3S,5R)-5-methyl-2-oxo-pyrrolidin-3-yl]methyl]-2,3-dioxo-propyl]-2-[(3,3,3-trifluoro-2-methyl-propanoyl)amino]benzamide] was tested. Which IC50 did it give?
A: The IC50 was 18.6 nM.

Q: `C[C@@H]1C[C@@H](C[C@H](NC(=O)c2cc(F)ccc2NC(=O)C2(C(F)(F)F)CC2)C(=O)C(=O)NC2CC2)C(=O)N1` [Example 25, N-[(1S)-3-(cyclopropylamino)-1-[[(3S,5R)-5-methyl-2-oxo-pyrrolidin-3-yl]methyl]-2,3-dioxo-propyl]-5-fluoro-2-[[1-(trifluoromethyl)cyclopropane-carbonyl]amino]benzamide] was tested. Which IC50 did it give?
A: The IC50 was 18.1 nM.
